Test results: patent publication US20260167623A1 (NIKANG THERAPEUTICS, INC., priority 2022, published 2026)

target: T1, CDK2 (Homo sapiens, UniProt P24941); assay: Inhibition of CDK2: phospho-Rb (S807/811) HTRF measurement in OVCAR3 cells, 24 h; format: cell-based; conditions: 24 h compound treatment, read-out: pRB_OVCAR3_24h
T1 construct: High-Throughput Measurement of Cellular Endogenous CDK2; endogenous in cells; host or cells: OVCAR3
Experimental: Inhibition of CDK2: Phospho-R^b Measurement in Cells
Phosphorylation of RB protein at S807/811 were measured using HTRF phospho-RB cellular kits (Cat #64RBS807PEG) from Cisbio.
On Day 1, OVCAR3 (CDK2 dependent cell line) cells were seeded into 96-well tissue-culture treated plates at 20,000 cells/well in 200 μL and incubated overnight at 37° C. in CO2 atmosphere. On Day 2, the cells were treated with test compounds at concentrations from 0.3 to 10,000 nM using HP D300 digital dispenser. Twenty-four hours after compound treatment, cell culture media is removed by flicking the plate and tapping the plate against clean paper towel. 30 μL 1× lysis buffer was supplemented from the kit was added to each well and the plate was incubated at room temperature on shaker for 30 min. After homogenization by pipetting up and down, 8 μL cell lysate from 96-well cell culture plate was transferred to 384-well small volume white detection plate. 2 μL premixed detection solution was added and the plate was covered with sealer. To prepare the detection solution, d2 conjugated-phospho-RB antibody and Eu-cryptate conjugated phosphor-RB antibody were diluted into detection buffer following manufacturer's instruction. Detection plates were incubated for 4 h at room temperature and read on ClarioStar (BMG Labtech) in TR-FRET mode (665 nM and 620 nM). The TR-FRET ratio (665 nM/620 nM) was plotted against the compound concentration and normalized to DMSO controls. Half maximal inhibition concentration (IC50) values were calculated with a four-parameter logistic fit using GraphPad Prism (version 8; La Jolla, CA).

**Q.** How did the IC50 turn out when `Cn1nc(N2CCC(=O)NC2=O)c2ccc(C3CCN(CC4CCN(c5cccc(S(=O)(=O)N6CC7(CC(Nc8ncc(C(F)(F)F)cn8)C7)C6)c5)CC4)CC3)cc21` [Example 172, 1-(1-methyl-6-(1-((1-(3-((6-((5-(trifluoromethyl)pyrimidin-2-yl)amino)-2-azaspiro[3.3]heptan-2-yl)sulfonyl)phenyl)piperidin\-4-yl)methyl)piperidin-4-yl)-1H-indazol-3-yl)dihydropyrimidine-2,4(1H,3H)-dione] was run?
**A.** > 2500 nM

**Q.** How did the IC50 turn out when `Cn1nc(N2CCC(=O)NC2=O)c2ccc(N3C4CCC3CN(CC3CCN(c5cccc(S(=O)(=O)N6CCC(Nc7ncc(Cl)cn7)CC6)c5)CC3)C4)cc21` [Example 104, 1-(6-(3-((1-(3-((4-((5-chloropyrimidin-2-yl)amino)piperidin-1-yl)sulfonyl)phenyl)-piperidin-4-yl)methyl)-3,8-diaza-bicyclo[3.2.1]octan-8-yl)-1-methyl-1H-indazol-3-yl)dihydropyrimidine-2,4(1H,3H)-dione] was run?
**A.** > 2500 nM

**Q.** `Cn1nc(N2CCC(=O)NC2=O)c2ccc(C3CCN(CC4CCN(c5cccc(S(=O)(=O)N6CC(Nc7ncc(C(F)(F)F)cn7)C6)c5)CC4)CC3)cc21` [Example 178, 1-(1-methyl-6-(1-((1-(3-((3-((5-(trifluoromethyl)pyrimidin-2-yl)amino)azetidin-1-yl)sulfonyl)phenyl)piperidin-4-yl)methyl)piperidin-4-yl)-1H-indazol-3-yl)dihydropyrimidine-2,4(1H,3H)-dione] was tested. Which IC50 did it give?
**A.** > 2500 nM

**Q.** `O=C1CCC(n2c(=O)n(C3CCN(CC4CCN(c5cccc(S(=O)(=O)N6CCC(Nc7ncc(C(F)(F)F)cn7)CC6)c5)CC4)CC3)c3ccccc32)C(=O)N1` (stereo not shown) [Example 171, 3-(2-oxo-3-(1-((1-(3-((4-((5-(trifluoromethyl)pyrimidin-2-yl)amino)piperidin-1-yl)sulfonyl)phenyl)piperidin-4-yl)methyl)piperidin-4-yl)-2,3-dihydro-1H-benzo[d]imidazol-1-yl)piperidine-2,6-dione] was tested. Which IC50 did it give?
**A.** 100 to 500 nM

**Q.** For `Cn1nc(N2CCC(=O)NC2=O)c2ccc(C3CN(Cc4cccc(S(=O)(=O)N5CCC(Nc6ncc(Cl)cn6)CC5)c4)C3)cc21` [Example 56, 1-(6-(1-(3-((4-((5-chloropyrimidin-2-yl)amino)piperidin-1-yl)sulfonyl)benzyl)-azetidin-3-yl)-1-methyl-1H-indazol-3-yl)dihydropyrimidine-2,4(1H,3H)-dione], which IC50 is on record?
**A.** 500 to 2500 nM

**Q.** For `O=C1CCC(N2Cc3cc(C4CN(Cc5cccc(S(=O)(=O)N6CCC(Nc7ncc(Cl)cn7)CC6)c5)C4)ccc3C2=O)C(=O)N1` (stereo not shown) [Example 50, 3-(5-(1-(3-((4-((5-chloropyrimidin-2-yl)amino)piperidin-1-yl)sulfonyl)benzyl)-azetidin-3-yl)-1-oxoisoindolin-2-yl)piperidine-2,6-dione], which IC50 is on record?
**A.** 500 to 2500 nM

**Q.** With `Cn1nc(N2CCC(=O)NC2=O)c2ncc(C3CCN(CC4CCN(c5cccc(S(=O)(=O)N6CCC(Nc7ncc(C(F)(F)F)cn7)CC6)c5)CC4)CC3)cc21` [Example 212, 1-(1-methyl-6-(1-((1-(3-((4-((5-(trifluoromethyl)pyrimidin-2-yl)amino)piperidin-1-yl)sulfonyl)phenyl)piperidin-4-yl)methyl)piperidin-4-yl)-1H-pyrazolo[4,3-b]pyridin-3-yl)dihydropyrimidine-2,4(1H,3H)-dione] as the compound, how does the IC50 read?
**A.** 500 to 2500 nM

**Q.** For `Cn1cc(-c2cnc(NC3CCN(S(=O)(=O)c4cccc(N5CCC(CN6CCC(c7ccc8c(N9CCC(=O)NC9=O)nn(C)c8c7)CC6)CC5)c4)CC3)nc2)cn1` [Example 155, 1-(1-methyl-6-(1-((1-(3-((4-((5-(1-methyl-1H-pyrazol-4-yl)pyrimidin-2-yl)amino)piperidin-1-yl)sulfonyl)phenyl)piperidin-4-yl)methyl)piperidin-4-yl)-1H-indazol-3-yl)dihydropyrimidine-2,4(1H,3H)-dione], which IC50 is on record?
**A.** > 2500 nM

**Q.** With `Cn1nc(N2CCC(=O)NC2=O)c2ccc(C3CCN(CC4CCN(S(=O)(=O)N5CCC(Nc6ncc(C(F)(F)F)cn6)CC5)CC4)CC3)cc21` [Example 15, 1-(1-methyl-6-(1-((1-((4-((5-(trifluoro-methyl)pyrimidin-2-yl)amino)piperidin-1-yl)sulfonyl)piperidin-4-yl)methyl)piperidin-4-yl)-1H-indazol-3-yl)dihydropyrimidine-2,4(1H,3H)-dione] as the compound, how does the IC50 read?
**A.** 500 to 2500 nM

**Q.** Which IC50 does the source give for `Cn1nc(N2CCC(=O)NC2=O)c2ccc(C3CCN(Cc4cnn(-c5cccc(S(=O)(=O)N6CCC(Nc7ncc(Cl)cn7)CC6)c5)c4)CC3)cc21` [Example 131, 1-(6-(1-((1-(3-((4-((5-chloropyrimidin-2-yl)amino)piperidin-1-yl)sulfonyl)phenyl)-1H-pyrazol-4-yl)methyl)piperidin-4-yl)-1-methyl-1H-indazol-3-yl)dihydropyrimidine-2,4(1H,3H)-dione] here?
**A.** 1 to 100 nM

**Q.** `Cc1cnc(NC2CCN(S(=O)(=O)c3cccc(CN4CCC(c5ccc6c(N7CCC(=O)NC7=O)nn(C)c6c5)CC4)c3)CC2)nc1` [Example 60, 1-(1-methyl-6-(1-(3-((4-((5-methyl-pyrimidin-2-yl)amino)piperidin-1-yl)sulfonyl)benzyl)piperidin-4-yl)-1H-indazol-3-yl)dihydropyrimidine-2,4(1H,3H)-dione] was tested. Which IC50 did it give?
**A.** 500 to 2500 nM

**Q.** `O=C1CCC(n2c(=O)n(CC3CCN(CC4CCN(c5cccc(S(=O)(=O)N6CCC(Nc7ncc(C(F)(F)F)cn7)CC6)c5)CC4)CC3)c3ccccc32)C(=O)N1` (stereo not shown) [Example 186, 3-(2-oxo-3-((1-((1-(3-((4-((5-(trifluoromethyl)pyrimidin-2-yl)amino)piperidin-1-yl)sulfonyl)phenyl)piperidin-4-yl)methyl)piperidin-4-yl)methyl)-2,3-dihydro-1H-benzo[d]imidazol-1-yl)piperidine-2,6-dione] was tested. Which IC50 did it give?
**A.** 1 to 100 nM

**Q.** Which IC50 does the source give for `Cn1nc(N2CCC(=O)NC2=O)c2ccc(C3CCN(CC4CCN(c5cccc(S(=O)(=O)N6CCC(Nc7ncc(C(F)F)cn7)CC6)c5)CC4)CC3)cc21` [Example 195, 1-(6-(1-((1-(3-((4-((5-(difluoromethyl)pyrimidin-2-yl)amino)piperidin-1-yl)sulfonyl)phenyl)piperidin-4-yl)methyl)piperidin-4-yl)-1-methyl-1H-indazol-3-yl)dihydropyrimidine-2,4(1H,3H)-dione] here?
**A.** 500 to 2500 nM

**Q.** Which IC50 does the source give for `Cn1nc(N2CCC(=O)NC2=O)c2ccc(C3CCN(CC4CCN(c5cccc(S(=O)(=O)c6ccc(Nc7ncc(C(F)(F)F)cn7)cc6)c5)CC4)CC3)cc21` [Example 245, 1-(1-methyl-6-(1-((1-(3-((4-((5-(trifluoromethyl)pyrimidin-2-yl)amino)phenyl)sulfonyl)phenyl)piperidin-4-yl)methyl)piperidin-4-yl)-1H-indazol-3-yl)dihydropyrimidine-2,4(1H,3H)-dione] here?
**A.** > 2500 nM

**Q.** Which IC50 does the source give for `Cn1nc(N2CCC(=O)NC2=O)c2cnc(C3CCN(CC4CCN(c5cccc(S(=O)(=O)N6CCC(Nc7ncc(Cl)cn7)CC6)c5)CC4)CC3)cc21` [Example 228, 1-(6-(1-((1-(3-((4-((5-chloropyrimidin-2-yl)amino)piperidin-1-yl)sulfonyl)phenyl)piperidin-4-yl)methyl)piperidin-4-yl)-1-methyl-1H-pyrazolo[4,3-c]pyridin-3-yl)dihydropyrimidine-2,4(1H,3H)-dione] here?
**A.** 100 to 500 nM

**Q.** Which IC50 does the source give for `Cn1nc(N2CCC(=O)NC2=O)c2ccc(C3CCN(CC4CCN(c5cc(C(F)(F)F)cc(S(=O)(=O)N6CCC(Nc7ncc(Cl)cn7)CC6)c5)CC4)CC3)cc21` [Example 170, 1-(6-(1-((1-(3-((4-((5-chloropyrimidin-2-yl)amino)piperidin-1-yl)sulfonyl)-5-(trifluoromethyl)phenyl)piperidin-4-yl)methyl)piperidin-4-yl)-1-methyl-1H-indazol-3-yl)dihydropyrimidine-2,4(1H,3H)-dione] here?
**A.** 500 to 2500 nM

**Q.** For `O=C1CCN(c2ccc(N3CCN(Cc4cccc(S(=O)(=O)N5CCC(Nc6ncc(C(F)(F)F)cn6)CC5)c4)CC3)cc2)C(=O)N1` [Example 82, 1-(4-(4-(3-((4-((5-(trifluoromethyl)-pyrimidin-2-yl)amino)piperidin-1-yl)sulfonyl)benzyl)piperazin-1-yl)phenyl) dihydropyrimidine-2,4(1H,3H)-dione], which IC50 is on record?
**A.** 500 to 2500 nM

**Q.** Which IC50 does the source give for `Cn1nc(N2CCC(=O)NC2=O)c2ccc(C3CCN(CC4CC5(C4)CN(c4cccc(S(=O)(=O)N6CCC(Nc7ncc(Cl)cn7)CC6)c4)C5)CC3)cc21` [Example 132, 1-(6-(1-((2-(3-((4-((5-chloropyrimidin-2-yl)amino)piperidin-1-yl)sulfonyl)phenyl)-2-azaspiro[3.3]heptan-6-yl)methyl)piperidin-4-yl)-1-methyl-1H-indazol-3-yl)dihydropyrimidine-2,4(1H,3H)-dione] here?
**A.** 1 to 100 nM

**Q.** With `Cn1nc(N2CCC(=O)NC2=O)c2ccc(N3CCN(CC4CCN(c5cccc(S(=O)(=O)N6CCC(Nc7ncc(Cl)cn7)CC6)c5)CC4)CC3)cc21` [Example 52, 1-(6-(4-((1-(3-((4-((5-chloropyrimidin-2-yl)amino)piperidin-1-yl)sulfonyl)phenyl)-piperidin-4-yl)methyl)piperazin-1-yl)-1-methyl-1H-indazol-3-yl)dihydropyrimidine-2,4(1H,3H)-dione] as the compound, how does the IC50 read?
**A.** 500 to 2500 nM
